In US11440904B2, “Substituted pyrimidines, pharmaceutical compositions and therapeutic methods thereof” (priority 2017, dated 2022) one finds IC50 and EC50 data, which are given here for 8 molecules.

Experiment [1] addresses BTK wt (Homo sapiens (Human), UniProt Q06187). Briefly: 33P ATP HotSpot kinase assay, BTK wt. Conditions: 10 μM ATP. Format: biochemical. The text has this: (§1) (See, e.g., Ma, et al, 2008 Expert Opin Drug Discov. 3(6): 607-621.)
For experiment [2], the target named is EGFR wt (Homo sapiens (Human), UniProt P00533). Briefly: 33P ATP HotSpot kinase assay, EGFR wt. Format: biochemical. Conditions: 10 μM ATP.
Description: Then, Kinase assays were performed using the “HotSpot” assay platform.
Briefly, specific kinase/substrate pairs along with required cofactors were prepared in reaction buffer; 20 mM Hepes pH 7.5, 10 mM MgCl2, 1 mM EGTA, 0.02% Brij35, 0.02 mg/ml BSA, 0.1 mM Na3VO4, 2 mM DTT, 1% DMSO. Compounds were delivered into the reaction, followed about 20 minutes later by addition of a mixture of ATP (Sigma, St. Louis Mo.) and ^33P ATP (Perkin Elmer, Waltham Mass.) to a final concentration of 10 μM.
Reactions were carried out at room temperature for 120 min, followed by spotting of the reactions onto P81 ion exchange filter paper (Whatman Inc., Piscataway, N.J.). Unbound phosphate was removed by extensive washing of filters in 0.75% phosphoric acid. […] IC50 values and curve fits were obtained using Prism (GraphPad Software).
Experiment [3] deals with FAK phosphorylation at tyrosine 397 (Homo sapiens (Human), UniProt Q05397). Nature of the experiment: Cell-based FAK(Y397) phosphorylation ELISA in PC3 cells. Particulars: 1 hr treatment, read-out: EC50 phospho-FAK(Y397). For orientation: ELISA stands for enzyme-linked immunosorbent assay.
Description: After aspirating the supernatant, 100 μL of RIPA lysis buffer (50 mM Tris-HCl, 1 mM EDTA, 1% NP-40, 0.5% sodium deoxycholate, and 0.1% SDS, pH 7.4, 150 mM NaCl, 1 mM Na3VO4) was added to the cell pellet to lyse the cells on ice for 30 min. After spin at 12,000 rpm for 5 min., 90 μL of the cell lysate was transferred to a fresh tube.
For an enzyme-linked immunosorbent assay (ELISA) assay, 10 μL of the lysate was used for p-FAK(Y397) elisa assay. ELISA was done using the FAK [pY397] Phospho-ELISA Kit (ThermoFisher Scientific, KHO0441) according to the manufacturer's instructions. […] During the first incubation, 50 μL standards of known p-FAK (Y397) content and compound treated samples (10 μL lysate) plus 40 μL diluent buffer were pipetted into the wells and let the p-FAK antigen standards and samples bind to the immobilized (capture) antibody on the plate, a rabbit antibody specific for p-FAK (Y397) 50 μL/well was added to the wells, this antibody serves as a detection antibody by binding to the p-FAK protein during a 3 hr. incubation at room temperature. After washing 4 times, a horseradish peroxidase labeled anti-rabbit IgG was added. This binds to the detection antibody. After a 30 min. incubation and washing to remove all the unbound enzyme, a substrate solution (TMB) was added, which was acted upon by the bound enzyme to produce color.
The subject of experiment [4] is EOL-1 cells. Nature of the experiment: Cancer cell growth inhibition, EOL-1. Format: cell-based. Conditions: Homo sapiens, EOL1, 72 hr, cell viability. The method, then:
(§2) In order to test certain compounds of Compounds 1 to 24 for cancer cell growth inhibition, a leukemia cancer cell line EOL-1, and triple negative breast cancer cell line MDA-MB-231 was used.
(§3) EOL-1 and MDA-MB-231 cells were cultured in a RPMI-1640 cell culture medium supplemented with 10% fetal bovine serum (FBS) and 1% penicillin/streptomycin (Gibco BRL).
(§4) The cancer cell lines stored in a liquid nitrogen tank were each quickly thawed at 37° C. water bath, and centrifuged to remove the DMSO in the freezing medium. The resulting cell pellet was mixed with a culture medium, incubated in a culture flask at 37° C. under 5% CO2 for 2 to 3 days. The EOL-1 cells were sub-cultured by 1:5˜10 dilution in fresh culture medium. For MD-MB-231 cells, the culture medium was removed and the remaining cells were washed with PBS (Phosphate Buffered Saline) and trypsinized by trypsin-EDTA. The detached cells were sub-cultured by 1:5˜10 dilution in fresh culture medium.
(§5) For the cell growth inhibition assay, the cells were seeded in 96-well cell culture plates at 5×10^4 cells/well for EOL-1 and 5×10^3 cells/well for MDA-MB-231 cells in 50 μL and incubated at 37° C. under 5% CO2 for 3 to 6 hr. before the compounds were added.
(§6) Certain compounds of Compounds 1-24 were dissolved in dimethylsulfoxide (DMSO) to a concentration of 10 mM. The DMSO solution containing test compound was diluted with a culture medium to a final concentration of 600 μM, and then diluted 100 times to 6 μM as top dose followed by 1:3 serial dilutions, and then add 50 μL diluted compounds to the 50 μL cells, with a final top dose at 3 μM and the plate was incubated at 37° C. under 5% CO2 for 72 hr. The cell viability was determined by Cell Meter™ Fluorimetric Cell Cytotoxicity Assay Kit (AAT Bioquest) according to the manufacturer's instructions. Briefly, thaw and warm up the Assay Solution (Component A) to 37° C., and mix it thoroughly. Add 20 μL/well (96-well plate) of Assay Solution (Component A). Mix the reagents by shaking the plate gently for 30 seconds. Incubate the cells in a 37° C., 5% CO2 incubator for 1-24 hr., protected from light. Monitor the fluorescence intensity (bottom read) at Ex/Em=540/590 nm. Alternatively, read the O.D. at 570 nm (the reference wavelength should be 600 nm) to determine the cell viability in each well.

In experiment [5] the test system is MDA-MB-231 cells. Briefly: Cancer cell growth inhibition, MDA-MB-231. Type of experiment: cell-based. Particulars: Homo sapiens, 72 hr, cell viability. As to the method: as §2, §3, §4, §5, §6
For experiment [6], the target named is FAK (Homo sapiens (Human), UniProt Q05397). Briefly: 33P ATP HotSpot kinase assay, FAK. Conditions: read-out: IC50 FAK, 10 μM ATP.
The target of experiment [7] is BMX (Homo sapiens (Human), UniProt P51813). Nature of the experiment: 33P ATP HotSpot kinase assay, BMX. Format: biochemical. Conditions: 10 μM ATP. The method, then:
as §1
(§7) Each of Compound-1 to Compound-24 was measured for its inhibitory activity on TEC family kinases, BMX and ITK. The measurement was carried out in the same process as described above, BMX, ITK enzymes were used.

Experiment [8] has as its target ITK (Homo sapiens (Human), UniProt Q08881). Nature of the experiment: 33P ATP HotSpot kinase assay, ITK. Type of experiment: biochemical. Particulars: 10 μM ATP. As to the method: as §1, §7
For experiment [9], the target named is BTK phosphorylation at tyrosine 223 (Homo sapiens (Human), UniProt Q06187). Nature of the experiment: Immunoblot analysis of phospho-BTK(Y223) in Ramos cells. Conditions: 1 hr treatment, anti-IgM stimulation, western blot. Format: cell-based. As to the method: Ramos cells were cultured in RPMI-1640 medium with 10% fetal bovine serum (FBS) and 1% penicillin/streptomycin (Gibco BRL). Before the assay, Ramos cells were counted and seeded at 1×10^6 cells/mL, cultured overnight in RPMI-1640 medium with 10% FBS, the cells were centrifuged at 950 rpm for 10 min., then 1˜2×10^6 cells were split into each tube in 300 μL medium. The cells were treated with certain compounds of Compound 1-24 at 0˜3 μM for 1 hr. in 37° C., then the cells were stimulated with 10 μg/mL of anti-IgM (BioLegend) for 5 min., followed by 3 min. spin at 2000 rpm. After aspirating the supernatant, 60 μL of RIPA lysis buffer (50 mM Tris-HCl, 1 mM EDTA, 1% NP-40, 0.5% sodium deoxycholate, and 0.1% SDS, pH 7.4, 150 mM NaCl, 1 mM Na3VO4) was added to the cell pellet to lyse the cells on ice for 30 min. After spin at 10,000 rpm for 5 min., 60 μL of the cell lysate was transferred to a fresh tube, and 20 μL of 4× LDS buffer was added to the tube. The samples were boiled on a 100° C. heat block for 10 min. 25 μL lysate was loaded on to SDS-PAGE gel (NuPAGE™ Novex™ 4-12% Bis-Tris Midi Protein Gels, cat. no. WG1402BOX, ThermoFisher) for western blotting analysis per the manufacturer's instructions. Antibodies used for immunoblot analysis include Btk and p-Btk(Y223) (cat. no. 3553 and 5082; Cell Signaling Technology, Beverly, Mass.). p-Btk(Y223) (cat. no. GTX61791; GeneTex, Inc., Irvine, Calif.). Membranes were detected using infrared fluorescence dye (IRDye® 800CW Donkey anti-Rabbit IgG (H+L), cat. no. P/N 925-32213; IRDye® 680RD Donkey anti-Mouse IgG (H+L), cat. no. P/N 925-68072 and scanned on a LiCor Odyssey scanner (LiCor Biosciences, Lincoln, Nebr.).

Molecules are shown by their SMILES. A value given as a limit tells only on which side of the number the result lay.

Sequence of FAK (Q05397 whole entry): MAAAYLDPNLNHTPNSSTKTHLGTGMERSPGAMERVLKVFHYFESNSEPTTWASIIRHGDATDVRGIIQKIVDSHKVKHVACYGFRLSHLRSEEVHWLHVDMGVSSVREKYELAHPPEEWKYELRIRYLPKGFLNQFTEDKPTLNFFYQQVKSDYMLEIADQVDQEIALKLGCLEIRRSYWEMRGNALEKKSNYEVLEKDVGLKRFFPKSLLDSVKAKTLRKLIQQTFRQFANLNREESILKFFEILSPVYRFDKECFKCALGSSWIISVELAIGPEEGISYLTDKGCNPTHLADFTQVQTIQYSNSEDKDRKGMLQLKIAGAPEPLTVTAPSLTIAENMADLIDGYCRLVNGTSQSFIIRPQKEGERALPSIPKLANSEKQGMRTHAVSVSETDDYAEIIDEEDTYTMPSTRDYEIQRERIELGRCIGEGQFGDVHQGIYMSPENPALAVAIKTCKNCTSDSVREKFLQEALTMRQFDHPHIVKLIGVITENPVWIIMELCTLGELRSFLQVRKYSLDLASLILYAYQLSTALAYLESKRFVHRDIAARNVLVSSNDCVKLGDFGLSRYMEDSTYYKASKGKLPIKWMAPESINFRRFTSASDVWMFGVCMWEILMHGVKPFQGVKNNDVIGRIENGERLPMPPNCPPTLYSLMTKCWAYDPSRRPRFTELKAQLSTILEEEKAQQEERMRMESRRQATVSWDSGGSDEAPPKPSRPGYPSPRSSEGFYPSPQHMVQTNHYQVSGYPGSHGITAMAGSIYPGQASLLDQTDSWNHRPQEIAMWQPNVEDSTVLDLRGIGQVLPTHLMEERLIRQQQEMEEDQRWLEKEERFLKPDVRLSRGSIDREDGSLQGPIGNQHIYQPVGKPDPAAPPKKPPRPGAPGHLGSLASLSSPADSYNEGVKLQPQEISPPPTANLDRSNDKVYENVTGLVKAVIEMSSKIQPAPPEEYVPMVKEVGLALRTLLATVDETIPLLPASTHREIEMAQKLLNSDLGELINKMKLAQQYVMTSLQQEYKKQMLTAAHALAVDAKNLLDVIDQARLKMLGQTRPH
Sequence of BMX (P51813 whole entry): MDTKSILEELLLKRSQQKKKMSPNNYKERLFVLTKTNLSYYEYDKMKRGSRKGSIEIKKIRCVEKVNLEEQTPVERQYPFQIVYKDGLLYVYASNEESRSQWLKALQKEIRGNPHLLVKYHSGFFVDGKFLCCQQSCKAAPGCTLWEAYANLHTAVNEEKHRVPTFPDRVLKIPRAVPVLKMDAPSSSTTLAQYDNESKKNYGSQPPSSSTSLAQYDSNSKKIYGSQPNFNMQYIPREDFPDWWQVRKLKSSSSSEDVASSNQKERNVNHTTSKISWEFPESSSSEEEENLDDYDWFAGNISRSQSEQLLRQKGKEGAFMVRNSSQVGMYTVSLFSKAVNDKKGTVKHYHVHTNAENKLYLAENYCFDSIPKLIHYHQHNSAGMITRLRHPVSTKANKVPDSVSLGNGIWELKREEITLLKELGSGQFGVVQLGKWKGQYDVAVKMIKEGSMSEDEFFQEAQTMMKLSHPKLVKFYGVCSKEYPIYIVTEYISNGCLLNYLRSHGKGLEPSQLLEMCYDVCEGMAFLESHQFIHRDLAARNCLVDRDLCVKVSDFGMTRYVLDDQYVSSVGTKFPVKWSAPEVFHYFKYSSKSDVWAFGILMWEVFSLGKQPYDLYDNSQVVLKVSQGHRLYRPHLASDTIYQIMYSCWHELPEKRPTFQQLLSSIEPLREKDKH
Sequence of EGFR wt (P00533 25-1210): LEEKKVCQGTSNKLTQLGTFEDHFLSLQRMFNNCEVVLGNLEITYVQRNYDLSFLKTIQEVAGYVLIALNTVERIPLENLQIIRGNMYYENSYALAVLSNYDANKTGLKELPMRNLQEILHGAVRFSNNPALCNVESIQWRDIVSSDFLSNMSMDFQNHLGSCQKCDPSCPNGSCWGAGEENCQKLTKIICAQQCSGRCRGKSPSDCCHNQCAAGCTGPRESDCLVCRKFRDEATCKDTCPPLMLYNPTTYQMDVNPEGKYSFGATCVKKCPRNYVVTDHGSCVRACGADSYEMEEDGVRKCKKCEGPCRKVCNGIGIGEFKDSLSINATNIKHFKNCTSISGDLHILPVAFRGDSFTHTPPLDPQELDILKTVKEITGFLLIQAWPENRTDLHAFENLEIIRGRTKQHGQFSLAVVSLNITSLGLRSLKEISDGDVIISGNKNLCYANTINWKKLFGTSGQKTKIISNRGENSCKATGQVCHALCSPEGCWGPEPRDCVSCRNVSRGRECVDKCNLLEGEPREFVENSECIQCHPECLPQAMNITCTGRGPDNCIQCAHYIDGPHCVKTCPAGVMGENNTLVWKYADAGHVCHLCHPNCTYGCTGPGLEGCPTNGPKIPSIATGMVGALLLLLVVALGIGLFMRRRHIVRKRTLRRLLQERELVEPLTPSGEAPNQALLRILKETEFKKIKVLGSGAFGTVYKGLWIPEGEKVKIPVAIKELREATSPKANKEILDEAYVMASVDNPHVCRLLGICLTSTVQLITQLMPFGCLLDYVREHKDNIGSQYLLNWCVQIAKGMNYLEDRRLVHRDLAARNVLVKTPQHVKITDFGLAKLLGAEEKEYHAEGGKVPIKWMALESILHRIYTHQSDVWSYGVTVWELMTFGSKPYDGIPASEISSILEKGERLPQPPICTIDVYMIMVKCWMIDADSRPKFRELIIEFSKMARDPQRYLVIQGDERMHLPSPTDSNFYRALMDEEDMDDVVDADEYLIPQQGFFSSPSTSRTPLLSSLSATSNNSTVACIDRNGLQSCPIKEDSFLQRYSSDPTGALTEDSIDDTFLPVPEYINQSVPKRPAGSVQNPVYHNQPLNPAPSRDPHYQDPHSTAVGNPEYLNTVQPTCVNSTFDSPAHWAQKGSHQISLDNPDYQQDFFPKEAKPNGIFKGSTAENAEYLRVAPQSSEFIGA
Sequence of BTK phosphorylation at tyrosine 223 (Q06187 whole entry): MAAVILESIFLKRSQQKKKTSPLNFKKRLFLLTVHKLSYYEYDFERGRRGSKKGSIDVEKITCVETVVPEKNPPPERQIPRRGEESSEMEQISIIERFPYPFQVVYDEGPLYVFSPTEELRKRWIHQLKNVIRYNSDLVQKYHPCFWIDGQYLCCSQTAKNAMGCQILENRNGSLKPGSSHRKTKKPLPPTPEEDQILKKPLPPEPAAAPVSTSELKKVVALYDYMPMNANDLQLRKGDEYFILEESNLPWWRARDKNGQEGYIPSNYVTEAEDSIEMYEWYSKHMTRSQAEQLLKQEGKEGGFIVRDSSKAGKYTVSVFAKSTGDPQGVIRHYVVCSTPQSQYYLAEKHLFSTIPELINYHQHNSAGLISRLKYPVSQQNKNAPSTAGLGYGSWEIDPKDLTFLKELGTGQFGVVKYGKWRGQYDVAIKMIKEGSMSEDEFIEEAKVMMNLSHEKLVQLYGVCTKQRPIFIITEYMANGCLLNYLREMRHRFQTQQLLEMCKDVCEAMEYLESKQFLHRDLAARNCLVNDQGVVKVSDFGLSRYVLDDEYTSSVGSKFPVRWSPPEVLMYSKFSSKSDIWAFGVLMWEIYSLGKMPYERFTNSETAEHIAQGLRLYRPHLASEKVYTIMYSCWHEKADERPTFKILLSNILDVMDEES
Sequence of BTK wt (Q06187 whole entry): as above
Sequence of ITK (Q08881 whole entry): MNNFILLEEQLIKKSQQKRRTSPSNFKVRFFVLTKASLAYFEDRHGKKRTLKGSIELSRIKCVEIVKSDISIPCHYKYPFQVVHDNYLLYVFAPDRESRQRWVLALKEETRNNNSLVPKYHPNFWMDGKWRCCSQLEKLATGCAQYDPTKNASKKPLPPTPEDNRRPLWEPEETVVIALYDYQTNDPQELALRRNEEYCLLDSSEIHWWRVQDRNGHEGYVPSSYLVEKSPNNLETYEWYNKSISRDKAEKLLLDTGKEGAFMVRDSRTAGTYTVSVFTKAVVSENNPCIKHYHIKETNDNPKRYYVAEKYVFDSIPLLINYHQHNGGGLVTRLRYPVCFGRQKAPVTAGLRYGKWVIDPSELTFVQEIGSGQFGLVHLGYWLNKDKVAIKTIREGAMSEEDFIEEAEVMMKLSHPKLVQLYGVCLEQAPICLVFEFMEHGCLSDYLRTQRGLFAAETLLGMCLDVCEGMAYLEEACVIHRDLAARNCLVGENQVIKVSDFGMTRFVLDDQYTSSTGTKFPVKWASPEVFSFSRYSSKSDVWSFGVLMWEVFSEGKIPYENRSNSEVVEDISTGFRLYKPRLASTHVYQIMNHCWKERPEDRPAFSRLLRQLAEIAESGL
Sequence of FAK phosphorylation at tyrosine 397 (Q05397 whole entry): as the sequence (Q05397 whole entry) above

The IC50 is the concentration that gives 50% inhibition. As usually defined, the EC50 is the concentration needed to bring the measured effect to its halfway point. With `CN([C@@H]1CCC[C@H]1Oc1nc(Nc2ccc3c(c2)OCCOCCOCCO3)nc2[nH]ncc12)S(C)(=O)=O` [Compound-19, N-methyl-N-[(1R,2R)-2-[[6-(2,5,8,11-tetraoxabicyclo[10.4.0]hexadeca-1(16),12,14-trien-14-ylamino)-1H-pyrazolo[3,4-d]pyrimidin-4-yl]oxy]cyclopentyl]methanesulfonamide], the IC50 in experiment [1] is 0.0682 µM; in experiment [2], > 1 µM; in experiment [4] it was 0.35 µM; in experiment [5], 2.5 µM; in experiment [6] it was 0.0135 µM. Moreover, the EC50 in [3] fell in the range of 0.1 to 1 µM.

`C=CC(=O)Nc1cccc(Nc2nc(Nc3ccc4c(c3)OCCOCCOCCO4)nc3[nH]cnc23)c1` [Compound-7, N-[3-[[2-(2,5,8,11-tetraoxabicyclo[10.4.0]hexadeca-1(12),13,15-trien-14-ylamino)-9H-purin-6-yl]amino]phenyl]prop-2-enamide]: the IC50 was 0.00041 µM in experiment [7]; 0.00065 µM in experiment [1]; 0.208 µM in [2]; 0.00135 µM in [8]; 2.5 µM in experiment [4]; > 3 µM in experiment [5]. Further, in experiment [6], the IC50 was found to be 0.274 µM. In [9], the EC50 was < 0.1 µM.

For the molecule `CN(c1cnccc1CNc1nc(Nc2ccc3c(c2)OCCOCCOCCO3)nc2[nH]ccc12)S(C)(=O)=O` [Compound-20, N-methyl-N-[4-[[[2-(2,5,8,11-tetraoxabicyclo[10.4.0]hexadeca-1(16),12,14-trien-14-ylamino)-7H-pyrrolo[2,3-d]pyrimidin-4-yl]amino]methyl]-3-pyridyl]methanesulfonamide], the half-maximal inhibitory concentration (IC50) in experiment [1] is > 1 µM; in [2], > 1 µM; in experiment [4] it was 2.25 µM; in [5] it was > 3 µM; in experiment [6], 0.0294 µM. In addition, the EC50 in experiment [3] is 0.1 to 1 µM.

As to `C=CC(=O)Nc1cccc(Nc2nc(Nc3ccc(OCCCOC4(CC)OCC(C)(C)CO4)cc3)ncc2F)c1` [Compound-5, N-[3-[[2-[4-[3-[(2-ethyl-5,5-dimethyl-1,3-dioxan-2yl)oxy]propoxy]anilino]-5-fluoro-pyrimidin-4-yl]amino]phenyl]prop-2-enamide], the IC50 in experiment [7] was < 0.1 µM; in experiment [1] it was < 0.1 µM; in [2], > 0.1 µM; in experiment [8], < 0.1 µM; in [4] it was 1.9 µM; in experiment [5], 3 µM. For the same molecule, the IC50 in experiment [6] was > 0.1 µM. In [9], the EC50 was < 0.1 µM.

Regarding `C=CC(=O)Nc1ccccc1Nc1nc(Nc2ccc3c(c2)OCCOCCOCCO3)ncc1F` [Compound-10, N-[2-[[5-fluoro-2-(2,5,8,11-tetraoxabicyclo[10.4.0]hexadeca-1(12),13,15-trien-14-ylamino)pyrimidin-4-yl]amino]phenyl]prop-2-enamide], the IC50 in experiment [7] was > 0.1 µM; in experiment [1], < 0.1 µM; in experiment [2], > 0.1 µM; in [8], > 0.1 µM; in [6], > 0.1 µM. Moreover, in experiment [9], the EC50 was 0.1 to 1 µM.

Take `C=CC(=O)N1CCC[C@@H](Nc2nc(Nc3ccc4c(c3)OCCOCCOCCO4)nc3[nH]cnc23)C1` [Compound-3, 1-[(3R)-3-[[2-(2,5,8,11-tetraoxabicyclo[10.4.0]hexadeca-1(12),13,15-trien-14-ylamino)-9H-purin-6-yl]amino]-1-piperidyl]prop-2-en-1-one]: the IC50 was 0.00169 µM in experiment [7]; 0.00317 µM in experiment [1]; 0.345 µM in [2]; 0.0396 µM in experiment [8]; > 3 µM in experiment [4]; > 3 µM in experiment [5]. Further, in [6], the IC50 is 1.24 µM. In addition, the EC50 in [9] is < 0.1 µM.

Take `C=CC(=O)N1CCC[C@@H](Nc2nc(Nc3ccc4c(c3)OCCOCCOCCO4)ncc2F)C1` [Compound-2, 1-[(3R)-3-[[5-fluoro-2-(2,5,8,11-tetraoxabicyclo[10.4.0]hexadeca-1(12),13,15-trien-14-ylamino)pyrimidin-4-yl]amino]-1-piperidyl]prop-2-en-1-one]: the IC50 in experiment [7] is 0.00846 µM; in experiment [1] it was 0.0734 µM; in [2], > 1 µM; in [8], > 1 µM; in [4] it was 2 µM; in [5], > 3 µM. Also, in experiment [6], the IC50 is > 1 µM. For the same molecule, the EC50 in experiment [9] fell in the range of 0.1 to 1 µM.

With `C=CC(=O)Nc1cccc(Nc2nc(Nc3ccc4c(c3)OCCOCCOCCO4)ncc2F)c1` [Compound-6, N-[3-[[5-fluoro-2-(2,5,8,11-tetraoxabicyclo[10.4.0]hexadeca-1(12),13,15-trien-14-ylamino)pyrimidin-4-yl]amino]phenyl]prop-2-enamide], the 50% inhibitory concentration (IC50) in [7] was < 0.1 µM; in [1] it was < 0.1 µM; in experiment [2], 0.732 µM; in experiment [8], < 0.1 µM; in [6], > 1 µM. The EC50 in experiment [9] was < 0.1 µM.
